In test [1] the target is T1, Melanin-concentrating hormone receptor 1 (Homo sapiens, UniProt Q99705). Put plainly: Inhibitory activity against Melanin-concentrating hormone receptor 1 at 1 uM.
Test [2] is described as follows: (§1) Inhibitory activity against Melanin-concentrating hormone receptor 1. Set-up: species or system Homo sapiens.
Test [3] concerns the target T2, 5-hydroxytryptamine receptor 2C (Homo sapiens) (UniProt P28335).
T2 sequence (whole entry): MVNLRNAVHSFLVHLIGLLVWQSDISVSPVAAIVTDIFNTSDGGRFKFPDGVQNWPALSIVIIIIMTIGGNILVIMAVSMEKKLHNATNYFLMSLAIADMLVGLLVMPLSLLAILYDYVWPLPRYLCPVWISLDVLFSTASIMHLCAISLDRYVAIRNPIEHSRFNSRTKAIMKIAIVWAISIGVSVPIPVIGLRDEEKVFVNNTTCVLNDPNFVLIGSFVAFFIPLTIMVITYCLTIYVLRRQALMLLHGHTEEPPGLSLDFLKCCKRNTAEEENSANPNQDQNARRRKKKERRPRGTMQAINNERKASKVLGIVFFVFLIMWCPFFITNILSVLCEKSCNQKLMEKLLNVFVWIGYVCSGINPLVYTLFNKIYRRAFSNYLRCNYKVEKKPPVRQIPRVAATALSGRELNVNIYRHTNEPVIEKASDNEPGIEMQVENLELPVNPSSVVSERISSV
Put plainly: Inhibitory activity against human 5-HT2C receptor at 1 uM concentration.

Test [4] deals with T3, 5-hydroxytryptamine receptor 2A (Homo sapiens, UniProt P28223). Kind of test: Inhibitory activity against human 5-HT2A receptor at 1 uM concentration.
In test [5] the target is T4, Alpha-1A adrenergic receptor (Homo sapiens) (UniProt P35348).
T4 sequence (whole entry): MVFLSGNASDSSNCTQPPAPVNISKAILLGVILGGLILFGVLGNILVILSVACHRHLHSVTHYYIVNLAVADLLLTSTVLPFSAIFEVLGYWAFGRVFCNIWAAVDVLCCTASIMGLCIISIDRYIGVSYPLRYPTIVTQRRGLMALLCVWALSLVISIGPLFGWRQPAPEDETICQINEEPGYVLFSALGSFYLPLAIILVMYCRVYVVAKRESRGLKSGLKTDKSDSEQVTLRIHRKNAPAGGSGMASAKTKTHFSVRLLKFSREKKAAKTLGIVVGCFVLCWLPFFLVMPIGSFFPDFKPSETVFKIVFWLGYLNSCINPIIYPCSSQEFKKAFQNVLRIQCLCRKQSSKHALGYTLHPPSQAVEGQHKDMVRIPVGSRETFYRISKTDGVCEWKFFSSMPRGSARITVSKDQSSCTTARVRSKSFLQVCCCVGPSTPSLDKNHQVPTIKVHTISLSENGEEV
Kind of test: Inhibitory activity against human adrenergic alpha-1A receptor at 1 uM concentration.

The target in test [6] is D(2) dopamine receptor (Homo sapiens) (UniProt P14416). Kind of test: Inhibitory activity against human D2 receptor at 1 uM concentration.
The species named for the next test is Homo sapiens. Kind of test: Selectivity ratio for MCH-1R versus 5-HT2B receptor.
Test [7] addresses T1, Melanin-concentrating hormone receptor 1. Kind of test: Tested for MCH-1 induced [Ca2+] release from CHO cells transfected with human MCH-1R. The format is cell-based.
Test [8] concerns the target T3, 5-hydroxytryptamine receptor 2A. Put plainly: Inhibitory activity against human 5-HT2A receptor.
For test [9], the target named is T5, 5-hydroxytryptamine receptor 2B (Homo sapiens, UniProt P41595). Put plainly: Inhibitory activity against human 5-HT2B receptor.
Test [10] has as its target T6, 5-hydroxytryptamine receptor 2C (Homo sapiens, UniProt P28335).
T6 sequence (P28335 whole entry): T2 sequence (whole entry)
Put plainly: Inhibitory activity against human 5-HT2C receptor.

In test [11] the target is T4, Alpha-1A adrenergic receptor (Homo sapiens). Put plainly: Inhibitory activity against human adrenergic alpha-1A receptor at 10 uM.
Test [12] deals with D(2) dopamine receptor (Homo sapiens) (UniProt P14416). Put plainly: Inhibitory activity against human D2 receptor at 10 uM.
For test [13], the target named is T1, Melanin-concentrating hormone receptor 1. Described as §1. The note with it: concentration not given here.
For test [14], the target named is T4, Alpha-1A adrenergic receptor (Homo sapiens). Put plainly: Inhibitory activity against human adrenergic alpha-1A receptor at 10 uM concentration.
The target of test [15] is D(2) dopamine receptor (Homo sapiens) (UniProt P14416). Put plainly: Inhibitory activity against human D2 receptor at 10 uM concentration.
The target of test [16] is T5, 5-hydroxytryptamine receptor 2B. Kind of test: Inhibitory activity against human 5-HT2B receptor at 1 uM concentration.

SMILES strings stand for the structures.

In general, inhibition refers to the percentage by which the read-out fell short of the control. A high value points to a strong effect. By IC50 is commonly meant the concentration needed to halve the response being measured. Lower therefore signals greater potency.

T3 sequence (P28223 whole entry): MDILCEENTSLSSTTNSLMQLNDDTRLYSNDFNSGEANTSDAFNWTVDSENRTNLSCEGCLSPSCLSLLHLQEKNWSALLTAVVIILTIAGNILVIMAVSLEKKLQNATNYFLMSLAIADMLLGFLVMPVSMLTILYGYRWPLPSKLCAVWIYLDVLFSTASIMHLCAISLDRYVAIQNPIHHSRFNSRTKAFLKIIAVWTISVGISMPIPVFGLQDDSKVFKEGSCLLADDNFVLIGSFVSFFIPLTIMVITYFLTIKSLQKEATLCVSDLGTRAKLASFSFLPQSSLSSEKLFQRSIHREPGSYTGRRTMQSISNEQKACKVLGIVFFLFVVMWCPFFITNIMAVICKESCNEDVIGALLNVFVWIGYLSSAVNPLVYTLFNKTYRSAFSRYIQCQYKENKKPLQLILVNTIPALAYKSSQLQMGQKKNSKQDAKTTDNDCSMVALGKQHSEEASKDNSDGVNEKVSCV
Sequence of D(2) dopamine receptor (Homo sapiens) (P14416 whole entry): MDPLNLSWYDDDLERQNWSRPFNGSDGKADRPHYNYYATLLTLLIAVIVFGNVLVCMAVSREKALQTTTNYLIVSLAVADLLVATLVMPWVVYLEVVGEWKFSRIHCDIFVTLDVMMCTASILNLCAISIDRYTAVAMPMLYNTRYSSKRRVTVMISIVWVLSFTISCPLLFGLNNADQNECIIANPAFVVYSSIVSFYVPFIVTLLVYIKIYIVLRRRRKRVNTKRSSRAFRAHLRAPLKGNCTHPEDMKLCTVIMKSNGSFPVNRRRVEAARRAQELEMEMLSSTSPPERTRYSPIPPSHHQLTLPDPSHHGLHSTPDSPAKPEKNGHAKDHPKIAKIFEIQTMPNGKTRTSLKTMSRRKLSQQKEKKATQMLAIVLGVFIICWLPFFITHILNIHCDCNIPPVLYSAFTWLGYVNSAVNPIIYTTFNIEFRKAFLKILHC
T5 sequence (P41595 whole entry): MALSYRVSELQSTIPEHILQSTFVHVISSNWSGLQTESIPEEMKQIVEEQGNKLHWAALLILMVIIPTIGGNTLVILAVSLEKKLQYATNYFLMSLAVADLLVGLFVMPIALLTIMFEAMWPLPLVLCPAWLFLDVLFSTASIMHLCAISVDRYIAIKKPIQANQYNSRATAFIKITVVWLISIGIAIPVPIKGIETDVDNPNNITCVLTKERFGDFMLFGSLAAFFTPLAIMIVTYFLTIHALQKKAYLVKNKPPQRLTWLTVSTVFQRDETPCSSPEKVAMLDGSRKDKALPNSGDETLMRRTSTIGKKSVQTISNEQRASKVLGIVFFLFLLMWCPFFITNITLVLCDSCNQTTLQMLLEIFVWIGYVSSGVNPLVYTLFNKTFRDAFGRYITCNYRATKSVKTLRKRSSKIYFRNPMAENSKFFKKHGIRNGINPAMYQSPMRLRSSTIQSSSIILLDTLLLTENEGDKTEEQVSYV
T1 sequence (Q99705 whole entry): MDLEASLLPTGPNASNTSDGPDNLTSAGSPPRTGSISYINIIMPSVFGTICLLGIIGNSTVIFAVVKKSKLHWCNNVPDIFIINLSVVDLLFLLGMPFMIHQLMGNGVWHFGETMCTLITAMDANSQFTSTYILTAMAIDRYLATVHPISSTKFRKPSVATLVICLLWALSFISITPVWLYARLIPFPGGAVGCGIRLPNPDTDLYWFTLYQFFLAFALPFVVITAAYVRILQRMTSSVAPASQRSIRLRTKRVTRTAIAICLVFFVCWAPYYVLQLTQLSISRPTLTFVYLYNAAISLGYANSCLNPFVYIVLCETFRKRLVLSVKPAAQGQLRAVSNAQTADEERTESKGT

`Cc1cc(N2CCN(C)CC2)nc2ccc(NC(=O)COCc3ccc(Cl)cc3)cc12` yielded an inhibition in test [1] of 19%.

`COc1cccc(OCC(=O)Nc2ccc3nc(N4CCN(C)CC4)cc(C)c3c2)c1` came in with an inhibition in [1] of 9%.

Molecule `Cc1cc(N2CCN(C)CC2)nc2ccc(NC(=O)COc3ccccc3)cc12` showed an inhibition in test [1] of 2%.

On to `Cc1cc(NC2CCCC2)nc2ccc(NC(=O)COc3ccc(C(F)(F)F)cc3)cc12`, for which the IC50 in test [2] is 0.038 µM.

Turning to `Cc1cc(N2CCN(C)CC2)nc2ccc(NC(=O)COc3ccccc3Cl)cc12`, in test [2], half-maximal inhibition (IC50) required 0.47 µM. Compared with the last molecule, the IC50 is about 12-fold higher.

`Cc1cc(N2CCN(C)CC2)nc2ccc(NC(=O)CSCc3ccc(Cl)cc3)cc12` displayed an inhibition in test [1] of 38%.

`Cc1cc(N2CCN(C)CC2)nc2ccc(NC(=O)COc3ccc(OC(F)(F)F)cc3)cc12`: the IC50 in test [2] turned out to be 0.036 µM. This lies in the double-digit nanomolar range.

In the case of `Cc1cc(N2CCCC2)nc2ccc(NC(=O)COc3ccc(C(F)(F)F)cc3)cc12`, the IC50 in test [2] was determined as 0.015 µM; in [7], 0.01 µM. In addition, the inhibition in test [3] stood at 7%; in test [4], 11%; in [5] it was 10%; in test [6] it was 7%. Also, the Ratio in the test filed under Homo sapiens was above 200.

In test [2], `Cc1cc(N(C)CCN(C)C)nc2ccc(NC(=O)COc3ccc(C(F)(F)F)cc3)cc12` yielded an IC50 of 0.022 µM.

Take `Cc1cc(N(C)C)nc2ccc(NC(=O)COc3ccc(C(F)(F)F)cc3)cc12`: the IC50 in test [2] is 0.174 µM.

On to `Cc1ccccc1OCC(=O)Nc1ccc2nc(N3CCN(C)CC3)cc(C)c2c1`, for which, in test [2], the IC50 came out at 1.05 µM.

In test [1], `Cc1cc(N(C)Cc2ccccc2)nc2ccc(NC(=O)COc3ccc(C(F)(F)F)cc3)cc12` came in with an inhibition of 40%.

For the molecule `Cc1cc(N2CCCCC2)nc2ccc(NC(=O)COc3ccc(C(F)(F)F)cc3)cc12`, the IC50 in [2] amounted to 0.226 µM.

With `Cc1cc(N2CCN(C)CC2)nc2ccc(NC(=O)COc3ccc(Cl)cc3)cc12`, the IC50 in [2] came to 0.055 µM; in test [8], 2.18 µM; in test [9] it was 0.349 µM; in test [10], 0.97 µM. Also, the inhibition in test [11] came out at 84%; in test [12], 35%.

`COc1ccccc1OCC(=O)Nc1ccc2nc(N3CCN(C)CC3)cc(C)c2c1`: the inhibition in test [13] came out at 0%.

In turn, `COc1ccc(OCC(=O)Nc2ccc3nc(N4CCN(C)CC4)cc(C)c3c2)cc1` had a 50% inhibitory concentration (IC50) in test [2] of 0.152 µM.

Molecule `Cc1cc(N2CCN(C)CC2)nc2ccc(NC(=O)COc3ccc(F)cc3)cc12` came in with an IC50 in test [2] of 1.68 µM. This IC50 lies about 11-fold higher than the previous one.

`Cc1cc(N2CCN(C)CC2)nc2ccc(NC(=O)COc3cccc(Cl)c3)cc12`: in test [13], the inhibition was found to be 19%.

As to `Cc1cc(N2CCN(C)CC2)nc2ccc(NC(=O)COc3ccc(C(F)(F)F)cc3)cc12`, the half-maximal inhibitory concentration (IC50) was 0.014 µM in test [2], 0.442 µM in test [9] and 0.063 µM in [7]. The inhibition in [3] turned out to be 39%; in test [4], 27%; in [14], 85%; in test [15] it was 41%. The Ratio in the test listed under Homo sapiens is 32.

As to `Cc1cc(N2CCOCC2)nc2ccc(NC(=O)COc3ccc(C(F)(F)F)cc3)cc12`, the IC50 in [2] worked out at 0.091 µM; in test [7], 0.124 µM. Moreover, the inhibition in test [16] turned out to be 19%; in [3], 27%; in [4], 27%; in test [5], 5%; in test [6], 43%. The Ratio in the test filed under Homo sapiens was above 11.

`Cc1cc(NC(C)C)nc2ccc(NC(=O)COc3ccc(C(F)(F)F)cc3)cc12`: the IC50 in test [2] came to 0.011 µM; in test [9], 0.4 µM. The inhibition in test [3] came to 18%; in [4] it was 18%; in [5] it was 24%; in [6], 2%. In the test listed under Homo sapiens, the Ratio turned out to be 36.

In turn, `Cc1ccc(OCC(=O)Nc2ccc3nc(N4CCN(C)CC4)cc(C)c3c2)cc1` registered an IC50 in test [2] of 0.08 µM.

Molecule `Cc1cc(N2CCN(C)CC2)nc2ccc(NC(=O)COc3ccc(C#N)cc3)cc12` yielded an IC50 in test [2] of 0.37 µM.

In test [2], `Cc1cc(N2CCN(C)CC2)nc2ccc(NC(=O)CCc3ccc(Cl)cc3)cc12` returned an IC50 of 0.3 µM.

Values taken from ChEMBL document CHEMBL1137142, “Structure-activity relationships of a novel series of melanin-concentrating hormone (MCH) receptor antagonists” (Bioorg Med Chem Lett, 2004).
